Measurements taken from patent US20070128217A1 (priority 2003, published 2007).

Tests used:
[1] = tested on: antibodies in sera from SARS patients (sera 1a, 1b, 2, 6, 37, 62, London, SARS-yellow, SARS-green); type: binding, human; set-up: Binding of serum 6 to linear peptides of protein X1 of SARS-CoV Urbani / Binding of serum 37 to linear peptides of protein X1 of SARS-CoV Urbani / Binding of serum 6 to looped/cyclic peptide (PEPSCAN-ELISA) / Binding of serum 37 to looped/cyclic peptide (PEPSCAN-ELISA) / Binding of serum 37 to looped/cyclic peptides of protein X1 of SARS-CoV Urbani / Binding of serum 6 to linear peptides of protein X2 / Binding of serum 37 to linear peptides of protein X2 / Binding of serum 37 to looped/cyclic peptides of protein X2 of SARS-CoV Urbani / Binding of serum 6 to linear peptides of protein M of SARS-CoV Urbani / Binding of serum 37 to linear peptides of protein M of SARS-CoV Urbani / Binding of serum 6 to looped/cyclic peptides of protein M of SARS-CoV Urbani / Binding of serum 37 to looped/cyclic peptides of protein M of SARS-CoV Urbani / Binding of serum 6 to linear peptides of protein X3 of SARS-CoV Urbani / Binding of serum 37 to linear peptides of protein X3 of SARS-CoV Urbani / Binding of serum 37 to looped/cyclic peptides of protein X3 of SARS-CoV Urbani / Binding of serum 6 to linear peptides of protein X4 of SARS-CoV Urbani / Binding of serum 37 to linear peptides of protein X4 of SARS-CoV Urbani / Binding of serum 37 to looped/cyclic peptides of protein X4 of SARS-CoV Urbani / Binding of serum 6 to linear peptides of protein X5 of SARS-CoV Urbani / Binding of serum 37 to linear peptides of protein X5 of SARS-CoV Urbani / Binding of serum 37 to looped/cyclic peptides of protein X5 of SARS-CoV Urbani / Binding of serum 6 to linear peptides of protein N of SARS-CoV Urbani / Binding of serum 37 to linear peptides of protein N of SARS-CoV Urbani / Binding of serum 6 to linear peptide (PEPSCAN-ELISA) / Binding of serum 1a to looped/cyclic peptides of protein N of SARS-CoV Urbani / Binding of serum 1b to looped/cyclic peptides of protein N of SARS-CoV Urbani / Binding of serum 2 to looped/cyclic peptides of protein N of SARS-CoV Urbani / Binding of serum 6 to looped/cyclic peptides of protein N of SARS-CoV Urbani / Binding of serum 37 to looped/cyclic peptides of protein N of SARS-CoV Urbani / Binding of serum 62 to looped/cyclic peptides of protein N of SARS-CoV Urbani / Binding of serum London to looped/cyclic peptides of protein N of SARS-CoV Urbani / Binding of serum SARS-green to looped/cyclic peptides of protein N of SARS-CoV Urbani: unit not given here
[2] = tested on: control sera (pooled serum of ten healthy LUMC hospital workers; commercial negative donor pooled serum from the Dutch bloodbank); type: binding, human; set-up: Binding of Control serum LUMC to linear peptides / Binding of Control serum Blood-bank to linear peptides / Binding of Control serum LUMC to looped peptides / Binding of Control Serum Blood-Bank to Looped peptides / Binding of Control serum LUMC to linear peptides of the protein M of SARS-CoV Urbani / Binding of Control serum Blood-bank to linear peptides of the protein M of SARS-CoV Urbani / Binding of Control serum LUMC to looped peptides of the protein M of SARS-CoV Urbani / Binding of Control Serum Blood-Bank to Looped peptides of the protein M of SARS-CoV Urbani: unit not given here
[3] = tested on: rabbit serum obtained by immunizing a rabbit with the SARS-CoV strain Frankfurt 1; type: binding; set-up: Binding of a rabbit serum to linear peptides / Binding of a rabbit serum to looped peptides / Rabbit serum linear peptides / Rabbit serum looped peptides / Binding of a rabbit serum to linear peptides of protein N of SARS-CoV Urbani (Rabbit serum linear peptides) / Binding of a rabbit serum to looped/cyclic peptides of protein N of SARS-CoV Urbani (Rabbit serum looped peptides): unit not given here

ITVATSRTLSYYKLG
Binding of serum 1a to linear peptides of protein M of SARS-CoV Urbani [1]: 0.6 | Binding of serum 1a to looped/cyclic peptides of protein M of SARS-CoV Urbani [1]: 1.0 | Binding of serum 1b to linear peptides of protein M of SARS-CoV Urbani [1]: 0.4 | Binding of serum 1b to looped/cyclic peptides of protein M of SARS-CoV Urbani [1]: 0.6 | Binding of serum 2 to linear peptides of protein M of SARS-CoV Urbani [1]: 0.5 | Binding of serum 2 to looped/cyclic peptides of protein M of SARS-CoV Urbani [1]: 0.8 | Binding of serum 6 to linear peptides of protein M of SARS-CoV Urbani [1]: 0.5 | Binding of serum 6 to looped/cyclic peptides of protein M of SARS-CoV Urbani [1]: 1.1 | Binding of serum 37 to linear peptides of protein M of SARS-CoV Urbani [1]: 0.4 | Binding of serum 37 to looped/cyclic peptides of protein M of SARS-CoV Urbani [1]: 0.3 | Binding of serum 62 to linear peptides of protein M of SARS-CoV Urbani [1]: 0.4 | Binding of serum 62 to looped/cyclic peptides of protein M of SARS-CoV Urbani [1]: 0.6 | Binding of serum London to linear peptides of protein M of SARS-CoV Urbani [1]: 0.3 | Binding of serum London to looped/cyclic peptides of protein M of SARS-CoV Urbani [1]: 0.4 | Binding of serum SARS-green to linear peptides of protein M of SARS-CoV Urbani [1]: 0.5 | Binding of serum SARS-green to looped/cyclic peptides of protein M of SARS-CoV Urbani [1]: 0.4 | Binding of serum SARS-yellow to linear peptides of protein M of SARS-CoV Urbani [1]: 0.2 | Binding of serum SARS-yellow to looped/cyclic peptides of protein M of SARS-CoV Urbani [1]: 0.4 | Binding of Control Serum Blood-Bank to Looped peptides of the protein M of SARS-CoV Urbani [2]: 0.5 | Binding of Control serum Blood-bank to linear peptides of the protein M of SARS-CoV Urbani [2]: 0.8 | Binding of Control serum LUMC to linear peptides of the protein M of SARS-CoV Urbani [2]: 0.7 | Binding of Control serum LUMC to looped peptides of the protein M of SARS-CoV Urbani [2]: 0.6 | Rabbit serum linear peptides [3]: 0.2 | Rabbit serum looped peptides [3]: 0.4

IVFTSCELYHYQECV
Binding of serum 1a to linear peptides of protein X4 of SARS-CoV Urbani [1]: 0.8 | Binding of serum 1a to looped/cyclic peptides of protein X4 of SARS-CoV Urbani [1]: 0.9 | Binding of serum 1b to linear peptides of protein X4 of SARS-CoV Urbani [1]: 0.9 | Binding of serum 1b to looped/cyclic peptides of protein X4 of SARS-CoV Urbani [1]: 0.8 | Binding of serum 2 to linear peptides of protein X4 of SARS-CoV Urbani [1]: 0.6 | Binding of serum 2 to looped/cyclic peptides of protein X4 of SARS-CoV Urbani [1]: 0.8 | Binding of serum 6 to linear peptides of protein X4 of SARS-CoV Urbani [1]: 0.8 | Binding of serum 6 to looped/cyclic peptides of protein X4 of SARS-CoV Urbani [1]: 0.6 | Binding of serum 37 to linear peptides of protein X4 of SARS-CoV Urbani [1]: 1.0 | Binding of serum 37 to looped/cyclic peptides of protein X4 of SARS-CoV Urbani [1]: 1.0 | Binding of serum 62 to linear peptides of protein X4 of SARS-CoV Urbani [1]: 1.0 | Binding of serum 62 to looped/cyclic peptides of protein X4 of SARS-CoV Urbani [1]: 0.8 | Binding of serum London to linear peptides of protein X4 of SARS-CoV Urbani [1]: 0.8 | Binding of serum London to looped/cyclic peptides of protein X4 of SARS-CoV Urbani [1]: 0.3 | Binding of serum SARS-green to linear peptides of protein X4 of SARS-CoV Urbani [1]: 0.9 | Binding of serum SARS-green to looped/cyclic peptides of protein X4 of SARS-CoV Urbani [1]: 0.8 | Binding of serum SARS-yellow to linear peptides of protein X4 of SARS-CoV Urbani [1]: 0.4 | Binding of serum SARS-yellow to looped/cyclic peptides of protein X4 of SARS-CoV Urbani [1]: 0.6 | Binding of Control Serum Blood-Bank to Looped peptides [2]: 0.8 | Binding of Control serum Blood-bank to linear peptides [2]: 0.8 | Binding of Control serum LUMC to linear peptides [2]: 0.8 | Binding of Control serum LUMC to looped peptides [2]: 0.9 | Rabbit serum linear peptides [3]: 0.4 | Rabbit serum looped peptides [3]: 0.4

IVTRPLMESELVIGA
Binding of serum 1a to linear peptides of protein M of SARS-CoV Urbani [1]: 0.8 | Binding of serum 1b to linear peptides of protein M of SARS-CoV Urbani [1]: 0.7 | Binding of serum 2 to linear peptides of protein M of SARS-CoV Urbani [1]: 0.6 | Binding of serum 6 to linear peptides of protein M of SARS-CoV Urbani [1]: 0.4 | Binding of serum 37 to linear peptides of protein M of SARS-CoV Urbani [1]: 0.6 | Binding of serum 62 to linear peptides of protein M of SARS-CoV Urbani [1]: 0.6 | Binding of serum London to linear peptides of protein M of SARS-CoV Urbani [1]: 0.3 | Binding of serum SARS-green to linear peptides of protein M of SARS-CoV Urbani [1]: 0.6 | Binding of serum SARS-yellow to linear peptides of protein M of SARS-CoV Urbani [1]: 0.5 | Recognition of the peptide by sera of SARS-CoV infected individuals, and form (linear, looped/cyclic) in which it is recognized [1]: recognized in looped/cyclic form | Binding of Control Serum Blood-Bank to Looped peptides of the protein M of SARS-CoV Urbani [2]: 0.9 | Binding of Control serum Blood-bank to linear peptides of the protein M of SARS-CoV Urbani [2]: 0.7 | Binding of Control serum LUMC to linear peptides of the protein M of SARS-CoV Urbani [2]: 0.8 | Binding of Control serum LUMC to looped peptides of the protein M of SARS-CoV Urbani [2]: 1.0 | Rabbit serum linear peptides [3]: 0.1 | Rabbit serum looped peptides [3]: 0.4
